Data reported in patent US20110183929A1, “STANDARDIZED EXTRACT AND FRACTION FROM HANCORNIA SPECIOSA LEAVES AND PHARMACEUTICAL COMPOSITION THEREOF” (priority 2008, published 2011).

Assays:
[1] = test system: normotensive mice; experiment: systolic pressure in normotensive mice (caudal vessel); type: in vivo; conditions: 1 mg/kg delivered orally
[2] = biological target: T1, angiotensin converting enzyme (ACE) (Oryctolagus cuniculus, UniProt P12822); experiment: colorimetric ACE inhibition assay (Serra et al.); type: biochemical; conditions: read-out: ACE inhibiting activity IC50
T1 sequence (P12822 34-1310): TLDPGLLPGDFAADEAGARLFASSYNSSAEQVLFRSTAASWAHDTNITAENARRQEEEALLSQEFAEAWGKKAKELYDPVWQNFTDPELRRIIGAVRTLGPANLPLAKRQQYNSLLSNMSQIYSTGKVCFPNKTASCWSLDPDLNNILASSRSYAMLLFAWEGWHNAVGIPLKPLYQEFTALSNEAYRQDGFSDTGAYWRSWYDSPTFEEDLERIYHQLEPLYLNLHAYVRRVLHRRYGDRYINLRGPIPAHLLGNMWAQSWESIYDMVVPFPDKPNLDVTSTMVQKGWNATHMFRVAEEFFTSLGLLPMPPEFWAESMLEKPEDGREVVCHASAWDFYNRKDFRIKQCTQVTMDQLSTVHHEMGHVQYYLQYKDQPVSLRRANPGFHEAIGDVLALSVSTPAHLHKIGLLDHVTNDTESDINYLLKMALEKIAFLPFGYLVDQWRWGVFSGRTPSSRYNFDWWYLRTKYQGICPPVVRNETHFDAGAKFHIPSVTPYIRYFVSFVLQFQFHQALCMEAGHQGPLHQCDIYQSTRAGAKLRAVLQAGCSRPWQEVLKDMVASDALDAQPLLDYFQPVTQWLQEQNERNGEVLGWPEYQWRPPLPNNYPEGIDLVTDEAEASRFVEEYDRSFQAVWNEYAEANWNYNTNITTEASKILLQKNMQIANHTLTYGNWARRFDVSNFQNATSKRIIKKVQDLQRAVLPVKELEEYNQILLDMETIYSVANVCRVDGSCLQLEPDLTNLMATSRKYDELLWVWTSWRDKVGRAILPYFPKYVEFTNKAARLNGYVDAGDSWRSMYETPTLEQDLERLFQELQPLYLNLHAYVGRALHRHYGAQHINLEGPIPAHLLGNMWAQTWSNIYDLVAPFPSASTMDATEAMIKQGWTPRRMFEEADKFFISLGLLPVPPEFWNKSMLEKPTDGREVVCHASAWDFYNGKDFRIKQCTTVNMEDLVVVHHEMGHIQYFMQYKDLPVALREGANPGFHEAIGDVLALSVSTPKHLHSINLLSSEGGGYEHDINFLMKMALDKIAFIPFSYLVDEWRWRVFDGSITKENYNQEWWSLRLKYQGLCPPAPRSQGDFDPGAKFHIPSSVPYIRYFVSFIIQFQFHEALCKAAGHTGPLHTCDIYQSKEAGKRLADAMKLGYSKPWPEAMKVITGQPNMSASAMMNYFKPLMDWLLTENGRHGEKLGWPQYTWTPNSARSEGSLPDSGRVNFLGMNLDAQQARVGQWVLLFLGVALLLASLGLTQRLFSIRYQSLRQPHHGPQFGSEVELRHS
Text: Despite being exhaustively referred to in ethnobotanic surveys, only few biological activities of Hancornia speciosa have been assessed. ACE inhibiting activity for ethanolic extract from the leaves of the said species has been referred to by Serra et al. (Serra, C. P.; Cortes, S. F.; Lombardi, J. A.; Braga De Oliveira, A.; Braga, F. C. Validation of a […] assay for the in vitro screening of inhibitors of angiotensin-converting enzyme (ACE) from plant extracts. Phytomedicine, v. 12, n. 6-7, 2005). These authors assessed several species of the Brazilian flora as for their ACE inhibiting potential. […] P.; Cortes, S. F.; Lombardi, J. A.; Braga De Oliveira, A.; Braga, F. C. Validation of a colorimetric assay for the in vitro screening of inhibitors of angiotensin-converting enzyme (ACE) from plant extracts. Phytomedicine, v. 12, n. 6-7, 2005), in the concentration of 0.1 mg/ml.

Compound | systolic arterial pressure / hypotensive effect [1] | IC50 [2]
C[C@H](CS)C(=O)N1CCC[C@H]1C(=O)O [Captopril] | significant hypotensive effect, but of low intensity and short duration | –
COC1[C@H](O)[C@H](O)C(O)[C@H](O)[C@H]1O (stereo partly drawn) [L-(+)-bornesitol] | – | 41.4 ± 9.6 µM
C[C@@H]1O[C@@H](OC[C@H]2O[C@@H](Oc3c(-c4ccc(O)c(O)c4)oc4cc(O)cc(O)c4c3=O)[C@H](O)[C@@H](O)[C@@H]2O)[C@H](O)[C@H](O)[C@H]1O [rutin] | – | 454 ± 78.4 µM
